For orientation: IC50 means the concentration that gives 50% inhibition. Read a high IC50 as lower potency.

Results on three compounds are retold here after patent US20200281904A1, “PROPHYLACTIC AND/OR THERAPEUTIC AGENT FOR DISEASES INVOLVING IDO EXPRESSION” (TAIHO PHARMACEUTICAL CO., LTD., priority 2017, published 2020).

In one assay the test system is IDO protein. The assay can be described thus: Inhibitory effect on IDO protein expression, Western blotting. The format is cell-based. As to conditions: human stomach cancer line NCI-N87; IFNγ 100 U/mL; 0.001, 0.01, 0.1 and 1 μM; 24 hours; FIG. 1. Here is the method:
Protein expression was detected by a Western blotting method. A human stomach cancer line NCI-N87 (CRL-5822) was purchased from American Type Culture Collection (ATCC). The cells were cultured in RPMI1640 (Wako Pure Chemical Industries, Ltd.) medium supplemented with 10% fetal bovine serum (FBS). The cells were seeded in a 6-well plate (#140675, Nunc) at 1×10^6 cells per well. The cells were cultured in a 5% CO2 incubator at 37° C. for 24 hours, INFγ (PeproTech, Inc.) at 100 U/mL and test substances [tanespimycin (Biotrend), ganetespib, BIIBO21 and Compound 1] in amounts of 0.001 μM, 0.01 μM, 0.1 μM and 1 μM each were then added, and the cells were further cultured for 24 hours. After the culturing, the cells were washed with ice-cooled PBS, and the cells were then lysed with a cytolytic agent. The cell lysate solution was centrifuged, and the soluble fraction was then removed, and subjected to thermal denaturation, followed by protein separation by SDS-PAGE.
10-fold dilution of TBST (Santa Cruz) with Milli-Q water was used as a washing solution, and the TBST solution containing 5% Blocking One (nacalai tesque) was used as an antibody diluting solution.
After completion of SDS-PAGE, the protein was transferred to a PVDF membrane (Trans-Blot Turbo Midi PVDF Transfer Pack, Biorad) by using a blotting device (Trans-Blot Turbo Transfer System, Biorad). The membrane after the transfer was blocked by incubation at room temperature for 60 minutes or more with Blocking One. […] The PVDF membrane was washed three times with the washing solution, and then immersed in SuperSignal West Pico Chemiluminescent Substrate (Thermo Scientific) for detection of GAPDH, or SuperSignal West Dura Extended Duration Substrate (Thermo Scientific) for detection of IDO, and chemiluminescence was detected by using Image Analyzer Amersham Imager 600QC (GE Healthcare Japan Corporation).
Background: Immunoblotting shows a protein as a band on a membrane.

For a further assay, the system named is GIST-T1. The assay can be described thus: Cell growth inhibition, CellTiter-Glo2.0 Assay, IFNγ added. The format is cell-based. The conditions noted are these: Homo sapiens, GISTT1, IFNγ 100 U/mL, 72 hours, number of surviving cells reduced to 50% of control. As to the method:
(§1) Human stomach cancer line NCI-N87 (CRL-5822), human lung cancer line NCI-H1975 (CRL-5908) and human lung cancer line HCC827 (CRL-2868) were purchased from ATCC, and human gastrointestinal stromal tumor line GIST-T1 (GIST01) was purchased from Cosmo Bio Co., Ltd. NCI-N87, NCI-H1975 and HCC827 were cultured in RPM11640 (Wako Pure Chemical Industries, Ltd.) medium supplemented with 10% FBS, and GIST-T1 was cultured in DMEM (Wako Pure Chemical Industries, Ltd.) medium supplemented with 10% FBS. The IDO protein and GAPDH were detected in the same manner as in Example 1 described above.
(§2) The amount of ATP generated from surviving cells was determined by CellTiter-Glo2.0 Assay (# G9243, Promega Corporation) to evaluate the cell growth inhibition ability of test substance. The cells of GIST-T1, HCC827, NCI-H1975 and NCI-N87 were seeded in 96-well plates (#165305, Thermo Scientific) at 1×10^4 (NCI-N87), 2×10^3 (HCC827 and HCI-H1975) and 3×10^3 (GIST-T1) per well, and cultured in a 5% CO2 incubator at 37° C. for 24 hours. After the culturing for 24 hours, INFγ (PeproTech) at 100 U/mL and a test substance (Compound 1) in amounts of 0.001 μM, 0.003 μM, 0.01 μM, 0.03 μM, 0.1 μM, 0.3 μM, 1 μM, 3 μM and 10 μM each were added, and further cultured for 72 hours. Equivalent amount of CellTiter-Glo2.0 Assay reagent as the medium was added to each well, the mixture was stirred for 2 minutes using a shaker under shading condition, and the plate was then left to stand at room temperature for about 10 minutes. The intensity of luminescence was measured using a microplate reader (EnSpire™ Multimode Plate Reader, PerkinElmer Japan Co., Ltd.), and used as an index of the number of surviving cells in each well. Using the intensity of luminescence of a group not treated with a test substance (control group) as a control, the cell survival rate (%) was calculated by using the following equation. From the obtained survival rate, the concentration (IC50 (μM)), at which the number of surviving cells is reduced to 50% of the control, was determined by a curve fitting regression analysis tool using Regression Analysis Tool XLfit5.3.0.8 (IDBS Ltd.).
(§3) Cell survival rate=T/C×100
(§4) T: Amount of luminescence in wells with a test substance
(§5) C: Amount of luminescence in wells with no test substance
A general note: ATP-based viability assays read luminescence as a measure of living cells.

Another assay concerns HCC827. The description is as above. The format is cell-based. The conditions noted are these: Homo sapiens, IFNγ 100 U/mL, 72 hours, number of surviving cells reduced to 50% of control. Here is the method:
as §1, §2, §3, §4, §5

The next assay has as its system NCI-H1975. Described as above. As to conditions: Homo sapiens, IFNγ 100 U/mL, 72 hours, number of surviving cells reduced to 50% of control. The format is cell-based. As to the method: as §1, §2, §3, §4, §5
A further assay has as its system NCI-N87. Described as above. The format is cell-based. As to conditions: Homo sapiens, IFNγ 100 U/mL, 72 hours, number of surviving cells reduced to 50% of control. Here is the method:
as §1, §2, §3, §4, §5

The subject of assay [1] is cells expressing IDO due to addition of IFNγ (IDO-positive cells). Description: Suppressive effect on growth in IDO-positive cells (all four lines, result in words). The format is cell-based, human. As to conditions: GIST-T1, HCC827, NCI-H1975, NCI-N87 with IFNγ 100 U/mL; 0.001-10 μM; 72 hours; FIG. 3. As to the method: as §1
The amount of ATP generated from surviving cells was determined by CellTiter-Glo2.0 Assay (# G9243, Promega Corporation) to evaluate the cell growth inhibition ability of test substance. […] The intensity of luminescence was measured using a microplate reader (EnSpire™ Multimode Plate Reader, PerkinElmer Japan Co., Ltd.), and used as an index of the number of surviving cells in each well. Using the intensity of luminescence of a group not treated with a test substance (control group) as a control, the cell survival rate (%) was calculated by using the following equation. […]

With `COc1c(C)cnc(Cn2cnc3c(Cl)nc(N)nc32)c1C` [BIIBO21], in the assay with IDO protein, the “inhibitory effect on IDO expression” value was “inhibitory effect on IDO expression in a concentration-dependent manner”.

Consider `CCc1cc(C(N)=O)ccc1-n1nc(C(C)C)c2c(-n3cnc(-c4cnn(C)c4)c3)ccnc21` [Compound 1, 3-ethyl-4-{3-isopropyl-4-(4-(1-methyl-1H-pyrazol-4-yl)-1H-imidazol-1-yl)-1H-pyrazolo[3,4-b]pyridin-1-yl}benzamide], for which the “inhibitory effect on IDO expression” value in the assay on IDO protein is listed as “inhibitory effect on IDO expression in a concentration-dependent manner”. The IC50 is 270 nM with GIST-T1, 1420 nM in the assay with HCC827, 810 nM in the assay with NCI-H1975 and 380 nM in the assay on NCI-N87. For the same compound, in assay [1], the “suppressive effect on cell growth” value is “suppressive effect on cell growth in a concentration-dependent manner”.

As for `CC(C)c1cc(-c2n[nH]c(=O)n2-c2ccc3c(ccn3C)c2)c(O)cc1O` [ganetespib], the “inhibitory effect on IDO expression” value with IDO protein is on record as “inhibitory effect on IDO expression in a concentration-dependent manner”.
